According to US20130102595A1 (Curis, Inc., priority 2011, published 2013):

How the values were obtained:
PI3Kα (p110α/p85α) = target: T1, PI3Kα (p110α/p85α) (Homo sapiens, UniProt P42336); test: PI3Kα ADP-Glo assay; type: biochemical; details: 20 μM PIP2, 10 μM ATP, 30 minutes
T1 construct: GST (N); made in house; host or cells: Baculovirus-infected Sf9 cells
Method in brief: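 Luminescent ADP-Glo detection, after depletion of residual ATP, quantified ADP made by PI3Kα phosphorylating 20 μM PIP2 at 10 μM ATP. The kinase step ran 30 min at room temperature in HEPES pH 7.4 with MgCl2, DTT and orthovanadate, using baculovirus/Sf9-expressed full-length p110α/p85α complex.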

[1] = test system: HDACs (HeLa cell nuclear extracts); test: HDAC enzymatic activity, Biomol Color de Lys system; type: biochemical; details: 1 hour, 25° C.
Method in brief: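 IC50 from sigmoidal fit of developer-terminated fluorescence (ex 350-380/em 440-460 nm). Reaction: 1 h at room temperature (25 °C), HeLa nuclear extract as HDAC source, artificial substrate, buffer of 50 mM Tris/Cl pH 8.0 with 137 mM NaCl, 2.7 mM KCl and 1 mM MgCl2.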

T1 sequence (P42336 whole entry): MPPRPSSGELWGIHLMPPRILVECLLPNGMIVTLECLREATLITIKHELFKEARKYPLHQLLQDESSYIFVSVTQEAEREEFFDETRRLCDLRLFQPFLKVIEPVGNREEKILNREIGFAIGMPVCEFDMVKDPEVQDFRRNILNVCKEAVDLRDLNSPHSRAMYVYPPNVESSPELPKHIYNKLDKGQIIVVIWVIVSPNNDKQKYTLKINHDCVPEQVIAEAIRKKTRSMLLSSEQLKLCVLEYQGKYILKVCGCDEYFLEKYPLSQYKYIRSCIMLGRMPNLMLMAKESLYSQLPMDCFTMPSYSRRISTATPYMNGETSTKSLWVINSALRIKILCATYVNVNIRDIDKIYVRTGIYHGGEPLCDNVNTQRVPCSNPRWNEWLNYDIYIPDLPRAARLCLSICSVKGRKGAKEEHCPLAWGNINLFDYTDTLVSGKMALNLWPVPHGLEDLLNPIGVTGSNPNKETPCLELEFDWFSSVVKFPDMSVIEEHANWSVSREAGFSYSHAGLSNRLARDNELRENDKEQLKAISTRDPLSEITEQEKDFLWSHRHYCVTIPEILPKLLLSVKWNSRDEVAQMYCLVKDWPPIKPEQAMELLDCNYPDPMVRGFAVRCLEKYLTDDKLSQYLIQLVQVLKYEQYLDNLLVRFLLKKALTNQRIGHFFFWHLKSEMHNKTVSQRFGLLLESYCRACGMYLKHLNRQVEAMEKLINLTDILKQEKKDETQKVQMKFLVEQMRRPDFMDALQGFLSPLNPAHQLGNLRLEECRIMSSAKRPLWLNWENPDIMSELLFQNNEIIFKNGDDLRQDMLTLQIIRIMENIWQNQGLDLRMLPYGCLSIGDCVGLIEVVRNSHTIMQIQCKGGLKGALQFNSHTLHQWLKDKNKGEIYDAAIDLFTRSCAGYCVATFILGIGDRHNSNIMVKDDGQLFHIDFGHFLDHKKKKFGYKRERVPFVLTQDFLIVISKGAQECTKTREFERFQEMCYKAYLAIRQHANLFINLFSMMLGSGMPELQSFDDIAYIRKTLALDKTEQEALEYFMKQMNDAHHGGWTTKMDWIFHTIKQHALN
T1 sequence (P27986 whole entry partner): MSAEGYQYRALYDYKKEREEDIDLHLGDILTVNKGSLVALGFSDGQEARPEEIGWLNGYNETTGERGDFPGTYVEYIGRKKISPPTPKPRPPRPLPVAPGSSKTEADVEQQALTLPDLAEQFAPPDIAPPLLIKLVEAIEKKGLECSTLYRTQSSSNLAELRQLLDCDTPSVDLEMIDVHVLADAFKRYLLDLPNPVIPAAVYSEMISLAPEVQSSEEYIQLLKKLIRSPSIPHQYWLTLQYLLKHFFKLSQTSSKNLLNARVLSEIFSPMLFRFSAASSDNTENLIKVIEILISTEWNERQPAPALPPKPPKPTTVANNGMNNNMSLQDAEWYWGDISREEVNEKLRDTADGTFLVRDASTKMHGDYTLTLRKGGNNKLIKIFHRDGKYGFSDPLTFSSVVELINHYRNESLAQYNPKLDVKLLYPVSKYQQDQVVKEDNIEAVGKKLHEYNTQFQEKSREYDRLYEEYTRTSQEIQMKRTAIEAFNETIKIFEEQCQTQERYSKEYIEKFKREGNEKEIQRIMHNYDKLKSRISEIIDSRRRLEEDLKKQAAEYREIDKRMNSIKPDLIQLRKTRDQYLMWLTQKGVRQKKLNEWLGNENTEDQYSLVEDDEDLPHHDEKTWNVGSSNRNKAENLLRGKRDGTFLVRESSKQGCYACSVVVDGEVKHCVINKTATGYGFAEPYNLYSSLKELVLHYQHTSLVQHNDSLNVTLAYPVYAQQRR

Row | SMILES | IC50 (PI3Kα (p110α/p85α)) [µM] | melting point | IC50 [1] [µM]
1 | CN(Cc1cc2nc(-c3ccc4c(c3)CC(=O)N4)nc(N3CCOCC3)c2s1)c1ncc(C(=O)NO)cn1 [Compound 194, N-hydroxy-2-(methyl((4-morpholino-2-(2-oxoindolin-5-yl)thieno[3,2-d]pyrimidin-6-yl)methyl)amino)pyrimidine-5-carboxamide] | > 10 | 270 °C (dec.) | < 0.1
2 | CN(Cc1cc2nc(-c3cn[nH]c3)nc(N3CCOCC3)c2s1)c1ncc(C(=O)NO)cn1 [Compound 196, N-hydroxy-2-(methyl((4-morpholino-2-(1H-pyrazol-4-yl)thieno[3,2-d]pyrimidin-6-yl)methyl)amino)pyrimidine-5-carboxamide] | 0.1 to 1 | 214 to 217 °C | < 0.1
3 | CN(Cc1cc2nc(-c3cc[nH]c3)nc(N3CCOCC3)c2s1)c1ncc(C(=O)NO)cn1 [Compound 197, N-hydroxy-2-(methyl((4-morpholino-2-(1H-pyrrol-3-yl)thieno[3,2-d]pyrimidin-6-yl)methyl)amino)pyrimidine-5-carboxamide] | < 0.1 | 175 to 189 °C | < 0.1
4 | CN(Cc1cc2nc(-c3ccc(F)cc3)nc(N3CCOCC3)c2s1)c1ncc(C(=O)NO)cn1 [Compound 200, 2-(((2-(4-fluorophenyl)-4-morpholinothieno[3,2-d]pyrimidin-6-yl)methyl)(methyl)amino)-N-hydroxypyrimidine-5-carboxamide] | > 10 | 168 to 170 °C | < 0.1
5 | Cc1ccc(-c2nc(N3CCOCC3)c3sc(CN(C)c4ncc(C(=O)NO)cn4)cc3n2)cc1 [Compound 201, N-hydroxy-2-(methyl((4-morpholino-2-p-tolylthieno[3,2-d]pyrimidin-6-yl)methyl)amino)pyrimidine-5-carboxamide] | 0.1 to 1 | 170 to 172 °C | < 0.1
6 | CN(Cc1cc2nc(-c3ccc(C(F)(F)F)cc3)nc(N3CCOCC3)c2s1)c1ncc(C(=O)NO)cn1 [Compound 202, N-hydroxy-2-(methyl((4-morpholino-2-(4-(trifluoromethyl)phenyl)thieno[3,2-d]pyrimidin-6-yl)methyl)amino)pyrimidine-5-carboxamide] | 0.1 to 1 | 222 to 223 °C | < 0.1
7 | Nc1ccc(-c2nc(N3CCOCC3)c3sc(CNc4ncc(C(=O)NO)cn4)cc3n2)cc1 [Compound 211, 2-((2-(4-aminophenyl)-4-morpholinothieno[3,2-d]pyrimidin-6-yl)methylamino)-N-hydroxypyrimidine-5-carboxamide] | 0.1 to 1 | 217 to 223 °C | < 0.1
8 | Nc1ncc(-c2nc(N3CCOCC3)c3sc(NS(=O)(=O)c4ccc(/C=C/C(=O)NO)cc4)cc3n2)cn1 [Compound 217, (E)-3-(4-(N-(2-(2-aminopyrimidin-5-yl)-4-morpholinothieno[3,2-d]pyrimidin-6-yl)sulfamoyl)phenyl)-N-hydroxyacrylamide] | < 0.1 | > 300 °C | < 0.1
9 | Nc1ncc(-c2nc(N3CCOCC3)c3sc(NS(=O)(=O)c4cccc(/C=C/C(=O)NO)c4)cc3n2)cn1 [Compound 218, (E)-3-(3-(N-(2-(2-aminopyrimidin-5-yl)-4-morpholinothieno[3,2-d]pyrimidin-6-yl)sulfamoyl)phenyl)-N-hydroxyacrylamide] | < 0.1 | > 300 °C | < 0.1
10 | COc1ccc(-c2nc(N3CCOCC3)c3sc(NS(=O)(=O)c4cccc(/C=C/C(=O)NO)c4)cc3n2)cn1 [Compound 221, (E)-N-hydroxy-3-(3-(N-(2-(6-methoxypyridin-3-yl)-4-morpholinothieno[3,2-d]pyrimidin-6-yl)sulfamoyl)phenyl)acrylamide] | < 0.1 | > 300 °C | < 0.1
11 | COc1ccc(-c2nc(N3CCOCC3)c3sc(NS(=O)(=O)c4ccc(/C=C/C(=O)NO)cc4)cc3n2)cn1 [Compound 222, N-Hydroxy-3-{4-[2-(6-methoxy-pyridin-3-yl)-4-morpholin-4-yl-thieno[3,2-d]pyrimidin-6-ylsulfamoyl]-phenyl}-acrylamide] | 0.1 to 1 | > 300 °C | < 0.1
12 | Nc1ncc(-c2nc(N3CCOCC3)c3sc(NCCCC(=O)NO)cc3n2)cn1 [Compound 225, 4-(2-(2-aminopyrimidin-5-yl)-4-morpholinothieno[3,2-d]pyrimidin-6-ylamino)-N-hydroxybutanamide] | < 0.1 | 220 to 230 °C | 1 to 10
13 | Nc1ncc(-c2nc(N3CCOCC3)c3sc(NCCCCC(=O)NO)cc3n2)cn1 [Compound 226] | < 0.1 | 175 to 180 °C | < 0.1
14 | CNc1ncc(-c2nc(N3CCOCC3)c3sc(NCCCCC(=O)NO)cc3n2)cn1 [Compound 227, N-Hydroxy-5-(2-(2-(methylamino)pyrimidin-5-yl)-4-morpholinothieno[3,2-d]pyrimidin-6-ylamino)pentanamide] | < 0.1 | 206 to 210 °C | < 0.1
15 | Cc1ncc(-c2nc(N3CCOCC3)c3sc(NCCCCC(=O)NO)cc3n2)cn1 [Compound 229, N-Hydroxy-5-(2-(2-methylpyrimidin-5-yl)-4-morpholinothieno[3,2-d]pyrimidin-6-ylamino)pentanamide] | < 0.1 | 248 to 252 °C | < 0.1
16 | Nc1ncc(-c2nc(N3CCOCC3)c3sc(NCCCCCC(=O)NO)cc3n2)cn1 [Compound 232, 6-[2-(2-Amino-pyrimidin-5-yl)-4-morpholin-4-yl-thieno[3,2-d]pyrimidin-6-ylamino]-hexanoic acid hydroxyamide] | < 0.1 | 220 to 225 °C | < 0.1
17 | COc1ccc(-c2nc(N3CCOCC3)c3sc(NCCCCCC(=O)NO)cc3n2)cn1 [Compound 233, 6-[2-(6-Methoxy-pyridin-3-yl)-4-morpholin-4-yl-thieno[3,2-d]pyrimidin-6-ylamino]-hexanoic acid hydroxyamide] | < 0.1 | 125 to 130 °C | < 0.1
18 | Nc1ncc(-c2nc(N3CCOCC3)c3sc(NCCCCCCC(=O)NO)cc3n2)cn1 [Compound 234, 7-[2-(2-Amino-pyrimidin-5-yl)-4-morpholin-4-yl-thieno[3,2-d]pyrimidin-6-ylamino]-heptanoic acid hydroxyamide] | < 0.1 | 235 to 240 °C | < 0.1
19 | CNc1ccc(-c2nc(N3CCOCC3)c3sc(C(C)N(C)c4ncc(C(=O)NO)cn4)cc3n2)cn1 (stereo not drawn) [Compound 237, N-Hydroxy-2-(methyl(1-(2-(6-(methylamino)pyridin-3-yl)-4-morpholinothieno[3,2-d]pyrimidin-6-yl)ethyl)amino)pyrimidine-5-carboxamide] | < 0.1 | 270 to 275 °C | < 0.1
20 | CNc1ccc(-c2nc(N3CCOCC3)c3sc(C(C)(C)Nc4ncc(C(=O)NO)cn4)cc3n2)cn1 [Compound 240, N-Hydroxy-2-(2-(2-(6-(methylamino)pyridin-3-yl)-4-morpholinothieno[3,2-d]pyrimidin-6-yl)propan-2-ylamino)pyrimidine-5-carboxamide] | < 0.1 | 200 to 205 °C | < 0.1
